Values of other authors in patent US20250171456A1, “P[…] AND THEIR THERAPEUTIC USES” (priority 2022, published 2025).

Legend:
[1] = humans, after oral administration of psilocybin (Passie, 2002)
[2] = Ballesteros, 2006

| Compound | time until psilocin is detectable in significant amounts in the plasma [1] [min] | solubility in water relative to psilocin [2] |
| --- | --- | --- |
| CN(C)CCc1c[nH]c2cccc(O)c12 [Psilocin] | 20 to 40 |  |
| CN(C)CCc1c[nH]c2cccc(OP(=O)(O)O)c12 [Psilocybin] |  | more soluble in water than psilocin |
